Experimental data published in patent US9290503B2, “Tricyclic compound derivatives useful in the treatment of neoplastic diseases, inflammatory disorders and immunomodulatory disorders” (CHEMBRIDGE CORPORATION, priority 2006, dated 2016).

What was measured:
[1] = system: normal cell line HEK293; experiment: Myeloma-selective cytotoxicity (FIG. 11), HEK293; assay type: cell-based, human
Source text: (§1) All the above were active in the multiple myeloma cell line H929.

[2] = target: T1, IGF1R tyrosine kinase (Homo sapiens, UniProt P08069); experiment: IGF1R tyrosine kinase assay (Kinase-Glo ATP depletion or PT66/PT100 AlphaScreen); assay type: biochemical; settings: FIG. 12
T1 construct: purified recombinant, 6×His- or GST-tagged kinase domain fragments of the corresponding RTKs expressed in baculovirus system; host or cells: baculovirus system
T1 sequence (P08069 999-1274 limits assumed): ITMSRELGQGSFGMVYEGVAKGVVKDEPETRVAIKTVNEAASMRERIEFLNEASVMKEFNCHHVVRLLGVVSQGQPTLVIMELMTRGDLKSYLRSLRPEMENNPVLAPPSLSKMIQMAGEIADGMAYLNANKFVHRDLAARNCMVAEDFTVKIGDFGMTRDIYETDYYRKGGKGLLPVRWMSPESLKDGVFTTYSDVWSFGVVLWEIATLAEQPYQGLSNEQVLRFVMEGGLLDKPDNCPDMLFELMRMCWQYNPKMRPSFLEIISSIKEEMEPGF
Procedure: To determine inhibition of several tyrosine kinases, such as IGF1R, InsR, Alk, TrkA and Jak2, kinase assays are conducted using either Kinase-Glo (Promega) or AlphaScreen (PerkinElmer) kinase assay platforms. The Kinase-Glo Luminescent Kinase Assay is a homogeneous method for measuring kinase activity by determining the amount of ATP remaining after a kinase reaction. The luminescent signal is proportional to the amount of ATP and inversely proportional to the amount of kinase activity. Tyrosine kinase PT66 AlphaScreen Assay is a high-sensitivity homogeneous, anti-phosphotyrosine antibody-mediated luminescent proximity method measuring incorporation of phosphate in synthetic poly(Glu-Tyr) substrate. The kinase preparations used consist of purified recombinant, 6×His- or GST-tagged kinase domain fragments of the corresponding RTKs expressed in baculovirus system.
The IGF1R tyrosine kinase is assayed in Kinase-Glo ATP depletion assay using the synthetic polymer poly(Glu-Tyr, 4:1) (Sigma Chemicals) as a phosphoacceptor substrate. Each reaction mixture consists of a total volume of 10 μl and contains 40 ng of the enzyme, 5 μg of poly(Glu-Tyr), 10 μM of ATP and variable concentrations of test compounds. The mixtures also contain 50 mM Tris-HCl, pH 7.5; 5 mM MgCl2; 5 mM MnCl2; 2 mM DTT and 0.01% Tween 20. The reaction mixtures are incubated at 37° C. for 60 minutes and residual concentration of ATP in the mixture is determined by adding luciferase-containing Kinase-Glo (Promega) development reagent and counting luminescence levels using Fusion Universal Microplate Analyzer (PerkinElmer). Tested compounds are dissolved in dimethyl sulfoxide to a stock concentration of 10 mM and are typically evaluated in the assay at eight concentrations in 1 nM to 20 μM range, each in quadruplicate. […] IC50 values are derived by non-linear regression analysis using Prism 3.0 software (Graphpad Software). […]

[3] = system: normal cell line CHO; experiment: Myeloma-selective cytotoxicity (FIG. 11), CHO; assay type: cell-based, chinese hamster
Source text: as §1

[4] = system: multiple myeloma cell line H929; experiment: Myeloma-selective cytotoxicity (FIG. 11), H929; assay type: cell-based, human
Source text: as §1

[5] = system: myeloma cells of primary patient sample; experiment: Induction of apoptosis in primary patient sample; assay type: cell-based, human; settings: for apoptosis of myeloma cells: primary patient sample
Source text: (§2) FIG. 8 depicts the apoptosis of myeloma cells induced by the compounds of the invention. Primary patient sample exposed to DMSO or compound (2a) (i.e., CRL 103142) or compound (2b) (i.e., CRL 130323) for 24 hr and indicated concentrations. LUQ-% viable myeloma cells and LLQ-% viable non-myeloma cells.
as §2, with “9” for “8”, “48” for “24”
as §2, with “10” for “8”, “96” for “24”
Primary patient sample exposed to DMSO or the compounds of the invention for 24 hours, 48 hours, and 96 hours and with a concentration of 0.4 μM, 0.6 μM, 1.2 μM, and 1.8 μM. LUQ-% viable myeloma cells and LLQ-% viable non-myeloma cells. The compounds of the invention included significant apoptosis of myeloma cells (FIGS. 8-10).

[6] = system: human myeloma cell lines; experiment: Effect on apoptosis, PI/annexin V staining; assay type: cell-based; settings: sensitive cell lines; 48 or 72 hours; 0.6 μM and 1.8 μM
Procedure: (§3) FIG. 7 depicts the effect of compound (2a) (i.e., CRL 103142) and compound (2b) (i.e., CRL 130323) on apoptosis. 4 human myeloma cell lines (3 sensitive and 1 resistant) were incubated for 48 or 72 hrs with indicated concentrations of compound (2a) and compound (2b) and effect on apoptosis was assessed by PI/annexin V staining. Results are reported as percentage of viable (PI−/annexin V−) cells.
(§4) 4 human myeloma cell lines (3 sensitive and 1 resistant) were incubated for 48 or 72 hours with the compounds of the invention, including compounds (2a) and (2b), having a concentration of 0.6 μM and 1.8 μM and effect on apoptosis was assessed by PI/annexin V staining. Results are reported as percentage of viable (PI−/annexin V−) cells.

[7] = system: human myeloma cell lines; experiment: Effect on cell cycle, PI staining; assay type: cell-based; settings: sensitive cell lines; 24 hours; 0.6 μM and 1.8 μM
Procedure: as §3, with “6” for “7”, “cell cycle.” for “apoptosis.”, “24” for “48 or 72”, “cell cycle” for “apoptosis”, “PI” for “PI/annexin V”, “cells in G0-G1 or S phase.” for “viable (PI−/annexin V−) cells.”
as §4, with “24” for “48 or 72”, “with” for “having”, “cell cycle” for “apoptosis”, “PI” for “PI/annexin V”, “cells in G0-G1 or S phase.” for “viable (PI−/annexin V−) cells.”

[8] = Toxicity in animals, body weight (FIG. 13); assay type: in vivo; settings: highest doses tested

Structure (SMILES) | toxicity in normal cell line HEK293 [1] | IGF-1R potency in vitro [2] | toxicity in normal cell line CHO [3] | activity in multiple myeloma cell line H929 [4] | apoptosis of myeloma cells ([5]; 24 hr) | apoptosis of myeloma cells ([5]; 48 hr) | apoptosis of myeloma cells ([5]; 96 hr) | effect on apoptosis (percentage of viable PI−/annexin V− cells) [6] | effect on cell cycle (percentage of cells in G0-G1 or S phase) [7] | toxicity in animals (body weight) [8] | toxicity in animals (body weight) ([8]; listed as CRL130323) | IGF-1R potency in vitro ([2]; listed as CRL130323) | selectivity towards multiple myeloma lines [4] | selectivity, viable myeloma cells versus viable non-myeloma cells ([5]; primary patient sample, 24, 48 and 96 hours)
Cc1ccc(OC[C@H](O)CNc2cc[nH]c(=O)c2-c2nc3cc4c(cc3[nH]2)CN(C2CCN(C)CC2)C4=O)c(C)c1 [2a] | demonstrated toxicity | same potency range as known preclinical compounds | demonstrated toxicity | active | induced significant apoptosis of myeloma cells | induced significant apoptosis of myeloma cells | induced significant apoptosis of myeloma cells | induced significant apoptosis | induced significant G1 growth arrest |  |  |  |  | 
Cc1ccc(OC[C@H](O)CNc2cc[nH]c(=O)c2-c2nc3cc4c(cc3[nH]2)CN(C2CCN(CCS(C)(=O)=O)CC2)C4=O)c(C)c1 [2b] | did not demonstrate toxicity | same potency range as known preclinical compounds | did not demonstrate toxicity | active | induced significant apoptosis of myeloma cells | induced significant apoptosis of myeloma cells | induced significant apoptosis of myeloma cells | induced significant apoptosis | induced significant G1 growth arrest | no signs of toxicity | no observable toxicity | comparable IGF-1R potency | highly selective | more selective
